# Measured values taken from patent US10981186B2, “Functional treatment application to particulate materials such as mulch or potting soil” (priority 2014, dated 2021).
# How the values were obtained:
# [1] = Screening test 4: recovery of herbicide active ingredient from mulch (methanol extraction, HPLC); type: physicochemical
# Description: Screening test 4: Recovery of functional material from particulate material
# In this experimental study the herbicide active ingredient was analyzed as the content of functional material (herbicide) as the active ingredient in the particulate material (mulch).
# Assay protocol: Ten milliliters of 100% methanol was used to extract the herbicide actives, Pendimethalin and Dimethenamid-P from one gram of mulch. Methanol and mulch were added to a vial and shaken at approximately 180 rpm for 30 minutes on a shaker table. Methanol was filtered from mulch and analyzed for actives via HPLC. Active ingredient recovery was recorded as weight percent. […]
# Table 2 and Table 3 show the results of an experiment related to the recovery of herbicide active ingredient from particulate material after providing functional herbicide coating. Table 2 and Table 3 show active ingredient releasing from the mulch at one month exposure compared to non-exposed mulch in warehouse.
# [2] = tested on: red imported fire ant (Solenopsis invicta) workers; conditions: rate evaluation, 0.5 to 3 X label rate
# Description: Testing with red imported fire ant (Solenopsis invicta, RIFA), Argentine ant (Linepthema humile), and odorous house ant (OHA) workers. Ten inch plastic arenas (inside walls coated with Fluon® to prevent escape) were provided a layer of moistened play sand. A band of mulch was placed across the arena near one side. Between the closest side and the mulch, a micro-centrifuge tube with a universal ant diet was placed. In the larger open area of the arena was placed a water vial and a small weigh boat with either corn grit+soybean oil (RIFA) or 20% honey water (Argentine ant and OHA). Approximately 100 ants were placed in each arena. Mortality was evaluated at 6 or 7 days.
# [3] = Black mulch, Warehouse (non-exposed)
# [4] = Natural mulch, Warehouse (non-exposed)
# [5] = Red mulch, Warehouse (non-exposed)
smiles,measurement,setting,value
CCC(CC)Nc1c([N+](=O)[O-])cc(C)c(C)c1[N+](=O)[O-] [pendimethalin],weight percent of pendimethalin,"[1]; Black mulch, Bottom 1 month",0.00005 weight percent
same,weight percent of pendimethalin,"[1]; Black mulch, Top 1 month",0.00044 weight percent
same,weight percent of pendimethalin,[1]; [3],0.0044 weight percent
same,weight percent of pendimethalin,"[1]; Natural mulch, Bottom 1 month",0.00026 weight percent
same,weight percent of pendimethalin,"[1]; Natural mulch, Top 1 month",0.00079 weight percent
same,weight percent of pendimethalin,[1]; [4],0.00674 weight percent
same,weight percent of pendimethalin,"[1]; Red mulch, Bottom 1 month",0.00026 weight percent
same,weight percent of pendimethalin,"[1]; Red mulch, Top 1 month",0.00054 weight percent
same,weight percent of pendimethalin,[1]; [5],0.00302 weight percent
CN/C(=N/CC1CCOC1)N[N+](=O)[O-] (stereo not shown) [dinotefuran],effectiveness over the rates tested (conclusion in words),[2],effective at all rates tested
COC[C@H](C)N(C(=O)CCl)c1c(C)csc1C [dimethenamid-P],weight percent of dimethenamid-P,"[1]; Black mulch, Bottom 1 month",<LOD
same,weight percent of dimethenamid-P,"[1]; Black mulch, Top 1 month",0.00003 weight percent
same,weight percent of dimethenamid-P,[1]; [3],0.002 weight percent
same,weight percent of dimethenamid-P,"[1]; Natural mulch, Bottom 1 month",<LOD
same,weight percent of dimethenamid-P,"[1]; Natural mulch, Top 1 month",0.00004 weight percent
same,weight percent of dimethenamid-P,[1]; [4],0.00203 weight percent
same,weight percent of dimethenamid-P,"[1]; Red mulch, Bottom 1 month",0.00000 weight percent
same,weight percent of dimethenamid-P,"[1]; Red mulch, Top 1 month",0.00002 weight percent
same,weight percent of dimethenamid-P,[1]; [5],0.00233 weight percent
